Results taken from patent US20220144838A1, “Compounds as Inhibitors of Macrophage Migration Inhibitory Factor” (NANJING IMMUNOPHAGE BIOTECH CO., LTD., priority 2019, published 2022).

target: T1, MIF (Homo sapiens, UniProt P14174); assay: MIF tautomerase assay using pHPP as substrate; assay type: biochemical; settings: inhibition of the MIF enzyme in vitro; mean of multiple test results
T1 sequence (P14174 2-115 limits assumed): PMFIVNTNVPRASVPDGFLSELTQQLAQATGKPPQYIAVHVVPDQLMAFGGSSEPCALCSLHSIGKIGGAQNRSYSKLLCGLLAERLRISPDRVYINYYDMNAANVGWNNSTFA
Procedure: Tautomerase Assay Using pHPP as Substrate
This assay measured MIF's tautomerase activity in a cell-free system and was based on the determination of initial rates of the MIF-catalyzed conversion of the ketonic into the enolic tautomer of pHPP. This was achieved by spectrophotometric quantification of the complex between borate and the product of the reaction (enolic pHPP). The substrate was prepared by conversion of the enolic pHPP into its ketonic form. To achieve this, 0.5 M pHPP in methanol was diluted 10-fold with 50 mM sodium acetate buffer at pH 6.0, and then the suspension was shaken for 24 h at room temperature in darkness, and finally stored at 4° C. for not more than 1 week, with 5 min sonication being recommended before use.
Assays were performed in small-volume clear-bottom black 96 or 384-well polystyrene plates (Greiner Bio-One). First, 2 μL of the enzyme solution containing 6 nM of MIF in DPBS, 0.025% w/v BSA, and 300 μM CHAPS was dispensed onto sample and negative control wells using Multidrop Combi with metallic tip cassettes (Thermo Fisher Scientific) previously treated with Sigmacote. Then, 2 μL of the same buffer without MIF was dispensed onto positive control wells. The reaction was started by addition of the following to all wells: 2 μL of substrate solution containing 3 mM ketonic pHPP in 200 mM boric acid, 25 mM sodium phosphate, 0.025% w/v BSA, and 300 μM CHAPS at pH 6.0. In order to remove bubbles, the plate was centrifuged in an Allegra 25R centrifuge (Beckman Coulter, Inc., Brea, Calif.) at 1000 rpm for 2 min at room temperature. Then, the plate was read in an EnVision. Final concentrations of enzyme and substrate were 3 nM and 1.5 mM, respectively. Initial rates were calculated for each well as the slope of the absorbance progress curve.
All exemplified compounds (Examples 1-230) were tested in the MIF tautomerase assay or a similar assay described above. The data mentioned below represents a mean pIC50 value of multiple test results. It is understood that the data illustrated below may have reasonable variation depending on the specific conditions and procedures used by the person conducting the testing.

Molecule	Tautomerase Inhibition pIC50
4-(4-(7-(2-hydroxyethyl)-4-(indolin-1-yl)-7H-pyrrolo[2,3-d]pyrimidin-2-yl)piperazin-1-yl)phenol [Example 1]	B (B means 5.01 to 6)

same assay, conditions: inhibition of the MIF enzyme in vitro; mean of multiple test results; read-out: Tautomerase Inhibition pIC50 (converted)

IC50 [nM]	Molecule
> 10000	Nc1nc(N2CCN(c3ccc(O)cc3)CC2)nc2c1ncn2C1CCCC(C(=O)O)C1 (mixture of isomers) [Example 189, 3-(6-amino-2-(4-(4-hydroxyphenyl)piperazin-1-yl)-9H-purin-9-yl)cyclohexane-1-carboxylic acid]
100 to 977	O=C1Cc2ccccc2N1c1nc(N2CCN(c3ccc(O)cc3)CC2)nc2c1ncn2CCO [Example 2, 1-(9-(2-hydroxyethyl)-2-(4-(4-hydroxyphenyl)piperazin-1-yl)-9H-purin-6-yl)indolin-2-one]
100 to 977	OCCn1cnc2c(-n3ncc4ccccc43)nc(N3CCN(c4ccc(O)cc4)CC3)nc21 [Example 3, 4-(4-(9-(2-hydroxyethyl)-6-(1H-indazol-1-yl)-9H-purin-2-yl)piperazin-1-yl)phenol]
> 10000	C[C@H](Nc1nc(N2CCN(c3ccc(O)cc3)CC2)nc2c1ncn2CCO)c1ccccc1 [Example 4, (S)-4-(4-(9-(2-hydroxyethyl)-6-((1-phenylethyl)amino)-9H-purin-2-yl)piperazin-1-yl)phenol]
> 10000	OCCn1cnc2c(N[C@@H](CO)Cc3ccccc3)nc(N3CCN(c4ccc(O)cc4)CC3)nc21 [Example 5, (R)-4-(4-(6-((1-hydroxy-3-phenylpropan-2-yl)amino)-9-(2-hydroxyethyl)-9H-purin-2-yl)piperazin-1-yl)phenol]
> 10000	OCCn1cnc2c(N[C@@H]3CCc4ccccc43)nc(N3CCN(c4ccc(O)cc4)CC3)nc21 [Example 6, (R)-4-(4-(6-((2,3-dihydro-1H-inden-1-yl)amino)-9-(2-hydroxyethyl)-9H-purin-2-yl)piperazin-1-yl)phenol]
1000 to 9770	OCCCn1cnc2c(N3CCc4ccccc43)nc(N3CCN(c4ccc(O)cc4)CC3)nc21 [Example 7, 4-(4-(9-(3-hydroxypropyl)-6-(indolin-1-yl)-9H-purin-2-yl)piperazin-1-yl)phenol]
100 to 977	O=C(O)CCn1cnc2c(N3CCc4ccccc43)nc(N3CCN(c4ccc(O)cc4)CC3)nc21 [Example 8, 3-(2-(4-(4-hydroxyphenyl)piperazin-1-yl)-6-(indolin-1-yl)-9H-purin-9-yl)propanoic acid]
100 to 977	OCCn1cnc2c(-n3cnc4ccccc43)nc(N3CCN(c4ccc(O)cc4)CC3)nc21 [Example 9, 4-(4-(6-(1H-benzo[d]imidazol-1-yl)-9-(2-hydroxyethyl)-9H-purin-2-yl)piperazin-1-yl)phenol]
10 to 97.7	O=C(O)Cn1cnc2c(-n3nc(C(=O)O)c4ccccc43)nc(N3CCN(c4ccc(O)cc4)CC3)nc21 [Example 10, 1-(9-(carboxymethyl)-2-(4-(4-hydroxyphenyl)piperazin-1-yl)-9H-purin-6-yl)-1H-indazole-3-carboxylic acid]
10 to 97.7	O=C(O)Cn1cnc2c(-n3nc(CO)c4ccccc43)nc(N3CCN(c4ccc(O)cc4)CC3)nc21 [Example 11, 2-(6-(3-(hydroxymethyl)-1H-indazol-1-yl)-2-(4-(4-hydroxyphenyl)piperazin-1-yl)-9H-purin-9-yl)acetic acid]
100 to 977	Oc1ccc(N2CCN(c3nc(-n4ncc5ccccc54)c4ncn(-c5cccnc5)c4n3)CC2)cc1 [Example 12, 4-(4-(6-(1H-indazol-1-yl)-9-(pyridin-3-yl)-9H-purin-2-yl)piperazin-1-yl)phenol]
> 10000	Oc1ccc(N2CCN(c3cc(-n4ncc5ccccc54)n4ncc(Br)c4n3)CC2)cc1 [Example 13, 4-(4-(3-bromo-7-(1H-indazol-1-yl)pyrazolo[1,5-a]pyrimidin-5-yl)piperazin-1-yl)phenol]
1000 to 9770	Oc1ccc(N2CCN(c3cc(-n4ncc5ccccc54)n4ncc(-c5cccnc5)c4n3)CC2)cc1 [Example 14, 4-(4-(7-(1H-indazol-1-yl)-3-(pyridin-3-yl)pyrazolo[1,5-a]pyrimidin-5-yl)piperazin-1-yl)phenol]
1000 to 9770	C[C@H]1CN(c2ccc(O)cc2)CCN1c1nc(-n2ncc3ccccc32)c2ncn(CC(=O)O)c2n1 [Example 15, (S)-2-(2-(4-(4-hydroxyphenyl)-2-methylpiperazin-1-yl)-6-(1H-indazol-1-yl)-9H-purin-9-yl)acetic acid]
10 to 97.7	O=C(O)Cn1cnc2c(-n3ncc4c(CO)cccc43)nc(N3CCN(c4ccc(O)cc4)CC3)nc21 [Example 16, 2-(6-(4-(hydroxymethyl)-1H-indazol-1-yl)-2-(4-(4-hydroxyphenyl)piperazin-1-yl)-9H-purin-9-yl)acetic acid]
100 to 977	Oc1ccc(N2CCN(c3nc(-n4ncc5ccccc54)c4ncn(Cc5nnn[nH]5)c4n3)CC2)cc1 [Example 17, 4-(4-(9-((1H-tetrazol-5-yl)methyl)-6-(1H-indazol-1-yl)-9H-purin-2-yl)piperazin-1-yl)phenol]
10 to 97.7	O=C(O)Cn1cnc2c(-n3nnc4ccc(Cl)cc43)nc(N3CCN(c4ccc(O)cc4)CC3)nc21 [Example 18, 2-(6-(6-chloro-1H-benzo[d][1,2,3]triazol-1-yl)-2-(4-(4-hydroxyphenyl)piperazin-1-yl)-9H-purin-9-yl)acetic acid]
1000 to 9770	O=C(O)Cn1cnc2c(-n3nnc4cc(Cl)ccc43)nc(N3CCN(c4ccc(O)cc4)CC3)nc21 [Example 19, 2-(6-(5-chloro-1H-benzo[d][1,2,3]triazol-1-yl)-2-(4-(4-hydroxyphenyl)piperazin-1-yl)-9H-purin-9-yl)acetic acid]
10 to 97.7	Cc1cccc2c1nnn2-c1nc(N2CCN(c3ccc(O)cc3)CC2)nc2c1ncn2CC(=O)O [Example 20, 2-(2-(4-(4-hydroxyphenyl)piperazin-1-yl)-6-(4-methyl-1H-benzo[d][1,2,3]triazol-1-yl)-9H-purin-9-yl)acetic acid]
10 to 97.7	O=C(O)Cn1cnc2c(-n3ncc4ccccc43)nc(N3CCN(c4ccc(O)cn4)CC3)nc21 [Example 21, 2-(2-(4-(5-hydroxypyridin-2-yl)piperazin-1-yl)-6-(1H-indazol-1-yl)-9H-purin-9-yl)acetic acid]
1000 to 9770	O=C(O)Cn1cnc2nc(N3CCN(c4ccc(O)cn4)CC3)nc(-n3ncc4ccccc43)c21 [Example 22, 2-(2-(4-(5-hydroxypyridin-2-yl)piperazin-1-yl)-6-(1H-indazol-1-yl)-7H-purin-7-yl)acetic acid]
100 to 977	OCCCn1cnc2c(-n3ncc4ccccc43)nc(N3CCN(c4ccc(O)cc4)CC3)nc21 [Example 23, 4-(4-(9-(3-hydroxypropyl)-6-(1H-indazol-1-yl)-9H-purin-2-yl)piperazin-1-yl)phenol]
10 to 97.7	O=C(O)Cn1cnc2c(-n3nnc4ccccc43)nc(N3CCN(c4ccc(O)cc4)CC3)nc21 [Example 24, 2-(6-(1H-benzo[d][1,2,3]triazol-1-yl)-2-(4-(4-hydroxyphenyl)piperazin-1-yl)-9H-purin-9-yl)acetic acid]
100 to 977	O=C(O)Cn1cnc2c(N3Cc4ccccc4C3)nc(N3CCN(c4ccc(O)cc4)CC3)nc21 [Example 26, 2-(2-(4-(4-hydroxyphenyl)piperazin-1-yl)-6-(isoindolin-2-yl)-9H-purin-9-yl)acetic acid]

Molecule	IC50 [nM]
O=C(O)Cn1cnc2c(-c3c[nH]c4ccccc34)nc(N3CCN(c4ccc(O)cc4)CC3)nc21 [Example 25, 2-(2-(4-(4-hydroxyphenyl)piperazin-1-yl)-6-(1H-indol-3-yl)-9H-purin-9-yl)acetic acid]	1000 to 9770
